Results from patent US20240025884A1 (Dong-A ST Co., Ltd., priority 2022, published 2024).

target: GCN2 (Homo sapiens (Human), UniProt Q9P2K8); assay: GCN2 Biochemical Assay (TR-FRET, GFP-eIF2S1 substrate phosphorylation); conditions: read-out: IC50 (GCN2 Inhibitory Activity)
Method: Experimental Example 1: GCN2 Biochemical Assay
An inhibitory effect of the inventive compound on GCN2 was identified as follows.
384-well (Greiner #784075) (or 1536-well [Greiner #782075]) plates containing 60 nl (or 20 nl for 1536-well) of compound in 100% DMSO (10 concentrations serially diluted 3.16-fold) were prepared. Two copies of plates were used—one for the GCN2 assay and a second for an artifact plate. Working reagents were prepared as follows—reaction buffer: Tris pH 7.5 20 mM, MgCl2 5 mM, DTT 1 mM, Brij-35 0.005%, EGTA 0.5 mM in water; 2× enzyme solution: GCN2 (produced in-house) 1.6 nM in reaction buffer; 2× substrate solution: GFP-eIFS1 (Thermo Fisher Scientific, PV4809) 50 nM, ATP 0.2 mM, tRNA 0.4 mg/ml in reaction buffer; p-GFP-eIF2S1 (artifact) solution: p-GFP-eIFS1 (produced by incubation of 100 nM GFP-eIF2S1 in reaction buffer with 100 uM ATP and 1 nM PERK KD enzyme for 3 hr at room temperature) 2 nM in reaction buffer; 3× stop/antibody solution: p-GFP-EIF2S1 Th-Ab (Thermo Fisher Scientific, PV4816) 6 nM, AZ13933939 3 uM, BSA 3% in reaction buffer. Reagents were loaded onto a liquid dispenser (Certus FLEX, Trajan Scientific and Medical), and 3 ul (1 ul for 1536-well) of 2× enzyme solution, followed by 3 ul (1 ul for 1536-well) of 2× substrate solution was added to the plates. When small numbers of plates were processed, the enzyme solution was added first to all plates, then the valve used for the substrate solution was primed immediately prior to use. Plates were tapped or spun 1 min/1K/RT to ensure proper mixing, followed by incubation at room temperature for 70 mins, covered/stacked in the dark. For the artifact plate, 6 ul of p-GFP-eIF2S1 solution was added prior to adding the stop/antibody solution. 3 ul (1 ul for 1536-well) of 3× stop/antibody solution was added to the plates, followed by a spin-down for 1 min/1K/RT, and incubation for 2-3 hr, sealed or covered with lids in the dark at room temperature. Plates were read on a plate reader (PHERAstar FSX, BMF Labtech) at Ex 340/Em 490/Em 520 nm.

Chain of GCN2 (Q9P2K8 whole entry): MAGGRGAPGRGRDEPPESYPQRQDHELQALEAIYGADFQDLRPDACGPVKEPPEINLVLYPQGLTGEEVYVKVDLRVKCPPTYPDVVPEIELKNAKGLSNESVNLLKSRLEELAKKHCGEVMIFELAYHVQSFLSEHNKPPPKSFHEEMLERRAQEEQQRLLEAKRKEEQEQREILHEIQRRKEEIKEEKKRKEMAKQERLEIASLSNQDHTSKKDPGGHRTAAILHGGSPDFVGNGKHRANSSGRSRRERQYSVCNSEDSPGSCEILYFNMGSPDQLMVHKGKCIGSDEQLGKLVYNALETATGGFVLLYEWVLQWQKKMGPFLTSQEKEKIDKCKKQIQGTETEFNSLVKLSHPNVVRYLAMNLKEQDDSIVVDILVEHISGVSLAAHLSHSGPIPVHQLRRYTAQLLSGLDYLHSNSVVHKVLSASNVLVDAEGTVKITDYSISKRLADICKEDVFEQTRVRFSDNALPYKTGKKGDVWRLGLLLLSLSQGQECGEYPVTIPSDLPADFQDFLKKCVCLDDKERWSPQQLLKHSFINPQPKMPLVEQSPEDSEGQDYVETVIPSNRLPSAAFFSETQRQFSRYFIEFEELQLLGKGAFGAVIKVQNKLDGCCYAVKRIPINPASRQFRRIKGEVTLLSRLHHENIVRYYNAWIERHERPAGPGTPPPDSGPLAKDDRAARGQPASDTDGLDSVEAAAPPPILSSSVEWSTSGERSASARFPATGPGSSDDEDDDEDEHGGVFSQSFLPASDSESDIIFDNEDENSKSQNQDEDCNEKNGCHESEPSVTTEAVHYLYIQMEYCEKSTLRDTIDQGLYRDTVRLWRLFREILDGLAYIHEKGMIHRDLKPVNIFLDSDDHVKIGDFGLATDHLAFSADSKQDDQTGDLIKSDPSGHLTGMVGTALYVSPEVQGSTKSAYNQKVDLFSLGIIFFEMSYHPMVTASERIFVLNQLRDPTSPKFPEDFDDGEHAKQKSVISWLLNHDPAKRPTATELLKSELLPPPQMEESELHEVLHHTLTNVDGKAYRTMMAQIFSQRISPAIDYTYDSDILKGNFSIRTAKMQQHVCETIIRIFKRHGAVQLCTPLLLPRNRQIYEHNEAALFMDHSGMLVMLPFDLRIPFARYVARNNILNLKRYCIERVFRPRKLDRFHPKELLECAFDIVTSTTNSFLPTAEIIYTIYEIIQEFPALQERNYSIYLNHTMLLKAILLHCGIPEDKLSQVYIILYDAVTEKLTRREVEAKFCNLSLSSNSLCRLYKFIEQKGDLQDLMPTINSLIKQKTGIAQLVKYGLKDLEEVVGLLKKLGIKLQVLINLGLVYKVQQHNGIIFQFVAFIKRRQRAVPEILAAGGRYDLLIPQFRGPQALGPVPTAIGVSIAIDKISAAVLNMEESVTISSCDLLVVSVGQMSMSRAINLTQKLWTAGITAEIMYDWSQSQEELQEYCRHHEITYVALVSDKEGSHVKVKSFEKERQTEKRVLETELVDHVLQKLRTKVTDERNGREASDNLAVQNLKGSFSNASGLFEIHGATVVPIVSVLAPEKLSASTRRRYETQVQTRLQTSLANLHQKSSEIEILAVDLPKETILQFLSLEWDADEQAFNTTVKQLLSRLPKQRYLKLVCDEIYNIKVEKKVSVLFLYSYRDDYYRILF

Row | Compound | IC50 [µM]
1 | Cc1cnc(Nc2cc(C)n(C)n2)nc1-c1c[nH]c2c(N(C)C(=O)CN3CC[C@H](Oc4ccncn4)C3)cccc12 [Example 21, (S)-N-(3-(2-((1,5-dimethyl-1H-pyrazol-3-yl)amino)-5-methylpyrimidin-4-yl)-1H-indol-7-yl)-N-methyl-2-(3-(pyrimidin-4-yloxy)pyrrolidin-1-yl)acetamide] | 0.01 to 0.1
2 | Cc1cnc(Nc2cc(C)n(C)n2)nc1-c1c[nH]c2c(NC(=O)C(C)N3CCCC3)cccc12 (stereo not drawn) [Example 22, N-(3-(2-((1,5-dimethyl-1H-pyrazol-3-yl)amino)-5-methylpyrimidin-4-yl)-1H-indol-7-yl)-2-(pyrrolidin-1-yl)propanamide] | 0.1 to 1
3 | Cc1cnc(Nc2cc(C)n(C)n2)nc1-c1c[nH]c2c(NC(=O)C(C)N3CC[C@H](Oc4ccncc4)C3)cccc12 (stereo partly drawn) [Example 23, N-(3-(2-((1,5-dimethyl-1H-pyrazol-3-yl)amino)-5-methylpyrimidin-4-yl)-1H-indol-7-yl)-2-((S)-3-(pyridin-4-yloxy)pyrrolidin-1-yl)propenamide] | 0.1 to 1
4 | Cc1cnc(Nc2cc(C)n(C)n2)nc1-c1c[nH]c2c(NC(=O)C(C)(C)N3CCCC3)cccc12 [Example 24, N-(3-(2-((1,5-dimethyl-1H-pyrazol-3-yl)amino)-5-methylpyrimidin-4-yl)-1H-indol-7-yl)-2-methyl-2-(pyrrolidin-1-yl)propenamide] | 0.1 to 1
5 | Cc1cnc(Nc2cc(C)n(C)n2)nc1-c1c[nH]c2c(NC(=O)C(C)(C)N3CC[C@H](Oc4ccncc4)C3)cccc12 [Example 25, (S)-N-(3-(2-((1,5-dimethyl-1H-pyrazol-3-yl)amino)-5-methylpyrimidin-4-yl)-1H-indol-7-yl)-2-methyl-2-(3-(pyridin-4-yloxy)pyrrolidin-1-yl)propanamide] | > 1
6 | Cc1cnc(Nc2cc(C)n(C)n2)nc1-c1c[nH]c2c(NC(=O)CN3CC(O)C3)cccc12 [Example 26, N-(3-(2-((1,5-dimethyl-1H-pyrazol-3-yl)amino)-5-methylpyrimidin-4-yl)-1H-indol-7-yl)-2-(3-hydroxyazetidin-1-yl)acetamide] | 0.01 to 0.1
7 | Cc1cnc(Nc2cc(C)n(C)n2)nc1-c1c[nH]c2c(NC(=O)CN3CC(OCc4ccncc4)C3)cccc12 [Example 27, N-(3-(2-((1,5-dimethyl-1H-pyrazol-3-yl)amino)-5-methylpyrimidin-4-yl)-1H-indol-7-yl)-2-(3-(pyridin-4-ylmethoxy)azetidin-1-yl)acetamide] | 0.01 to 0.1
8 | Cc1cnc(Nc2cc(C)n(C)n2)nc1-c1c[nH]c2c(NC(=O)CN3CC(Oc4ccncc4)C3)cccc12 [Example 28, N-(3-(2-((1,5-dimethyl-1H-pyrazol-3-yl)amino)-5-methylpyrimidin-4-yl)-1H-indol-7-yl)-2-(3-(pyridin-4-yloxy)azetidin-1-yl)acetamide] | 0.01 to 0.1
9 | Cc1cnc(Nc2cc(C)n(C)n2)nc1-c1c[nH]c2c(NC(=O)CN3CC(Oc4ccncn4)C3)cccc12 [Example 29, N-(3-(2-((1,5-dimethyl-1H-pyrazol-3-yl)amino)-5-methylpyrimidin-4-yl)-1H-indol-7-yl)-2-(3-(pyrimidin-4-yloxy)azetidin-1-yl)acetamide] | 0.01 to 0.1
10 | Cc1cnc(Nc2cc(C)n(C)n2)nc1-c1c[nH]c2c(NC(=O)CN3CC(Oc4cccnc4)C3)cccc12 [Example 30, N-(3-(2-((1,5-dimethyl-1H-pyrazol-3-yl)amino)-5-methylpyrimidin-4-yl)-1H-indol-7-yl)-2-(3-(pyridin-3-yloxy)azetidin-1-yl)acetamide] | 0.1 to 1
11 | COC(=O)C1CN(CC(=O)Nc2cccc3c(-c4nc(Nc5cc(C)n(C)n5)ncc4C)c[nH]c23)C1 [Example 31, methyl 1-(2-((3-(2-((1,5-dimethyl-1H-pyrazol-3-yl)amino)-5-methylpyrimidin-4-yl)-1H-indol-7-yl)amino)-2-oxoethyl)azetidine-3-carboxylate] | 0.01 to 0.1
12 | Cc1cnc(Nc2cc(C)n(C)n2)nc1-c1c[nH]c2c(NC(=O)CN3CC(C(=O)O)C3)cccc12 [Example 32, 1-(2-((3-(2-((1,5-dimethyl-1H-pyrazol-3-yl)amino)-5-methylpyrimidin-4-yl)-1H-indol-7-yl)amino)-2-oxoethyl)azetidine-3-carboxylic acid] | 0.01 to 0.1
13 | Cc1cnc(Nc2cc(C)n(C)n2)nc1-c1c[nH]c2c(NC(=O)CN3CC(Oc4cc(C(=O)NC5CC5)on4)C3)cccc12 [Example 33, N-cyclopropyl-3-((1-(2-((3-(2-((1,5-dimethyl-1H-pyrazol-3-yl)amino)-5-methylpyrimidin-4-yl)-1H-indol-7-yl)amino)-2-oxoethyl)azetidin-3-yl)oxy)isoxazole-5-carboxamide] | 0.01 to 0.1
14 | Cc1cnc(Nc2cc(C)n(C)n2)nc1-c1c[nH]c2c(NC(=O)CN3CC=C(c4ccncc4)CC3)cccc12 [Example 34, 2-(3,6-dihydro-[4,4′-bipyridin]-1(2H)-yl)-N-(3-(2-((1,5-dimethyl-1H-pyrazol-3-yl)amino)-5-methylpyrimidin-4-yl)-1H-indol-7-yl)acetamide] | 0.1 to 1
15 | Cc1cnc(Nc2cc(C)n(C)n2)nc1-c1c[nH]c2c(NC(=O)CN3CC=C(c4cnn(C)c4)CC3)cccc12 [Example 35, N-(3-(2-((1,5-dimethyl-1H-pyrazol-3-yl)amino)-5-methylpyrimidin-4-yl)-1H-indol-7-yl)-2-(4-(1-methyl-1H-pyrazol-4-yl)-3,6-dihydropyridin-1(2H)-yl)acetamide] | 0.1 to 1
16 | Cc1cnc(Nc2cc(C)n(C)n2)nc1-c1c[nH]c2c(NC(=O)CN3CCC(N4CCN(C)CC4)CC3)cccc12 [Example 36, N-(3-(2-((1,5-dimethyl-1H-pyrazol-3-yl)amino)-5-methylpyrimidin-4-yl)-1H-indol-7-yl)-2-(4-(4-methylpiperazin-1-yl)piperidin-1-yl)acetamide] | 0.1 to 1
17 | Cc1cnc(Nc2cc(C)n(C)n2)nc1-c1c[nH]c2c(NC(=O)CN3CCC(N4CCOCC4)CC3)cccc12 [Example 37, N-(3-(2-((1,5-dimethyl-1H-pyrazol-3-yl)amino)-5-methylpyrimidin-4-yl)-1H-indol-7-yl)-2-(4-morpholinopiperidin-1-yl)acetamide] | 0.1 to 1
18 | Cc1cnc(Nc2cc(C)n(C)n2)nc1-c1c[nH]c2c(NC(=O)CN3CCC(Oc4cccnc4)CC3)cccc12 [Example 38, N-(3-(2-((1,5-dimethyl-1H-pyrazol-3-yl)amino)-5-methylpyrimidin-4-yl)-1H-indol-7-yl)-2-(4-(pyridin-3-yloxy)piperidin-1-yl)acetamide] | 0.1 to 1
19 | Cc1cnc(Nc2cc(C)n(C)n2)nc1-c1c[nH]c2c(NC(=O)CN3CCC(Oc4ccccn4)CC3)cccc12 [Example 39, N-(3-(2-((1,5-dimethyl-1H-pyrazol-3-yl)amino)-5-methylpyrimidin-4-yl)-1H-indol-7-yl)-2-(4-(pyridin-2-yloxy)piperidin-1-yl)acetamide] | 0.1 to 1
20 | Cc1cnc(Nc2cc(C)n(C)n2)nc1-c1c[nH]c2c(NC(=O)CN3CCC(Oc4ccncc4)CC3)cccc12 [Example 40, N-(3-(2-((1,5-dimethyl-1H-pyrazol-3-yl)amino)-5-methylpyrimidin-4-yl)-1H-indol-7-yl)-2-(4-(pyridin-4-yloxy)piperidin-1-yl)acetamide] | 0.1 to 1
21 | Cc1cnc(Nc2cc(C)n(C)n2)nc1-c1c[nH]c2c(NC(=O)CN3CCC(Oc4ncccn4)CC3)cccc12 [Example 41, N-(3-(2-((1,5-dimethyl-1H-pyrazol-3-yl)amino)-5-methylpyrimidin-4-yl)-1H-indol-7-yl)-2-(4-(pyrimidin-2-yloxy)piperidin-1-yl)acetamide] | 0.01 to 0.1
22 | Cc1cc(C)nc(OC2CCN(CC(=O)Nc3cccc4c(-c5nc(Nc6cc(C)n(C)n6)ncc5C)c[nH]c34)CC2)n1 [Example 42, N-(3-(2-((1,5-dimethyl-1H-pyrazol-3-yl)amino)-5-methylpyrimidin-4-yl)-1H-indol-7-yl)-2-(4-((4,6-dimethylpyrimidin-2-yl)oxy)piperidin-1-yl)acetamide] | 0.01 to 0.1
23 | Cc1cnc(Nc2cc(C)n(C)n2)nc1-c1c[nH]c2c(NC(=O)CN3CCC(Oc4cc(C(=O)NC5CC5)on4)CC3)cccc12 [Example 43, N-cyclopropyl-3-((1-(2-((3-(2-((1,5-dimethyl-1H-pyrazol-3-yl)amino)-5-methylpyrimidin-4-yl)-1H-indol-7-yl)amino)-2-oxoethyl)piperidin-4-yl)oxy)isoxazole-5-carboxamide] | 0.01 to 0.1
24 | Cc1cnc(Nc2cc(C)n(C)n2)nc1-c1c[nH]c2c(NC(=O)CN3CCCC(Oc4cc(C(=O)NC5CC5)on4)C3)cccc12 (stereo not drawn) [Example 44, N-cyclopropyl-3-((1-(2-((3-(2-((1,5-dimethyl-1H-pyrazol-3-yl)amino)-5-methylpyrimidin-4-yl)-1H-indol-7-yl)amino)-2-oxoethyl)piperidin-3-yl)oxy)isoxazole-5-carboxamide] | 0.1 to 1
